Source: US8569350B2, “Anti-mitotic anti-proliferative compounds” (Rutgers, The State University of New Jersey, priority 2004, dated 2013)

Key:
[1] = test system: EKVX cells associated with non-small cell lung cancer; assay: NCI DTP cancer cell growth inhibition, EKVX; assay type: cell-based; conditions: a large negative number denotes stronger activity
Procedure: (§1) A detailed evaluation of cancer cell growth inhibition effect for T111-T115 was conducted by the NIH-National […] (NCI) Developmental Therapeutic Program (DTP) (FIG. 4). A large negative number denotes stronger activity.

[2] = test system: NCI-H322M cells associated with non-small cell lung cancer; assay: NCI DTP cancer cell growth inhibition, NCI-H322M; assay type: cell-based; conditions: a large negative number denotes stronger activity
Procedure: as §1

[3] = test system: NCI-H522 cells associated with non-small cell lung cancer; assay: NCI DTP cancer cell growth inhibition, NCI-H522; assay type: cell-based; conditions: a large negative number denotes stronger activity
Procedure: as §1

[4] = test system: 60-cell line panel; assay: NCI DTP cancer cell growth inhibition, 60-cell line panel overall; assay type: cell-based; conditions: across the 60-cell line panel
Procedure: as §1

Structure (SMILES) | melting point [°C] | growth inhibition (log 10GI50) [1] | growth inhibition (log 10GI50) [2] | growth inhibition (log 10GI50) [3] | overall growth inhibition performance [4]
COc1ccc(-n2cnnc2-c2cc(OC)c(OC)c(OC)c2)cc1F | 151 to 152 |  |  |  | 
COc1ccc(-n2cnnc2-c2cc(OC)c(OC)c(OC)c2)cc1O [Compound T113, 3-(3,4,5-trimethoxyl)phenyl-4-(3-hydroxyl, 4-methoxyl)phenyl-1,2,4(H)triazole] | 197 to 198 |  |  |  | 

The next lines start with results.

melting point [°C] | Structure (SMILES) | growth inhibition (log 10GI50) [1] | growth inhibition (log 10GI50) [2] | growth inhibition (log 10GI50) [3] | overall growth inhibition performance [4]
145 to 147 | COc1cc(-c2nncn2-c2ccc(N(C)C)cc2)cc(OC)c1OC [Compound T112, 3-(3,4,5-trimethoxyl)phenyl-4-(N,N-dimethylamino) phenyl-1,2,4(H)triazole] |  |  |  | 
157 to 159 | COc1cc(-c2nncn2-c2ccc3c(ccn3C)c2)cc(OC)c1OC [Compound T115] | < −8.00 | < −8.00 | < −8.00 | performed uniformly well
163 to 165 | COc1ccc(-n2cnnc2-c2cc(OC)c(OC)c(OC)c2)cc1 [Compound T111, 3-(3,4,5-trimethoxyl)phenyl-4-(4-methoxyl)phenyl-1,2,4(H)triazole] |  |  |  | 
